Source: paper PMC10761396, “Evaluation of new alternative methods for the identification of estrogenic, androgenic and steroidogenic effects: a comparative in vitro/in silico study” (Archives of Toxicology, 2023)

How the values were obtained:
ER [1] = tested on: ER; parameters: method as in Browne, et al (2015); settings: ref Browne, et al (2015), cited from earlier work
[2] = biological target: T1, human recombinant CYP19A1 (Homo sapiens, UniProt P11511); assay: Recombinant enzyme aromatase activity inhibition assay; format: biochemical; settings: follow-up dose–response assay
T1 sequence (P11511 1-503): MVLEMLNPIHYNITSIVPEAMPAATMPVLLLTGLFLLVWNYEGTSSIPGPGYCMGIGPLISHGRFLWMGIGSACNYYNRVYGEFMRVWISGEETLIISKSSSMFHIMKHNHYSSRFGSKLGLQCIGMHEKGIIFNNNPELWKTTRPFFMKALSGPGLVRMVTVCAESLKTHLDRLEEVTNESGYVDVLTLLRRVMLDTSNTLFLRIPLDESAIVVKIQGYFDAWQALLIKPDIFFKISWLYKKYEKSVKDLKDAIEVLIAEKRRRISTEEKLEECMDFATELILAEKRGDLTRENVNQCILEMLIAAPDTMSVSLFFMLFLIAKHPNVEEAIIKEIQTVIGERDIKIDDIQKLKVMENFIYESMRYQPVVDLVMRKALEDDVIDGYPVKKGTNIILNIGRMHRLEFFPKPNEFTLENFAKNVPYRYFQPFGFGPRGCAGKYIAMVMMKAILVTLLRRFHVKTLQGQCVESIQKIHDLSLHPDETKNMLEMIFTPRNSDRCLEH
Protocol: An aromatase inhibition assay was also included in the in vitro assay panel. This enzyme – otherwise known as CYP19A1 - is responsible for converting androgens into estrogens (Blakemore and Naftolin 2016; Bulun 2014); therefore, chemicals that inhibit aromatase activity can lead to reduced estrogen production, which can affect reproductive and developmental processes (Kragie 2002; Tiboni and Ponzano 2016).
The metabolite, estradiol, was measured by time-resolved fluorescence according to the method described previously (Ji et al. 2014). Enzyme inhibition was calculated as a % inhibition of control enzyme activity.

AR [3] = tested on: AR; parameters: method as in Park et al. [2021]; settings: ref Park et al. [2021]; cited from earlier work
aromatase [4] = tested on: aromatase; parameters: method as in US EPA ToxCast; settings: ref US EPA ToxCast; cited from earlier work
ER [5] = assay: ToxCast ER assays and final ToxCast call; settings: from active ToxCast assays, cytotoxicity, ToxCast Pathway Model and CERAPP Potency Level
Source text: (§1) A rich source of data can be found in the EPA's ToxCast database (US EPA). This contains ED data for ~ 1800 chemicals in more than 700 high-throughput assay endpoints that cover a range of high-level cell responses. The US EPA is running an Endocrine Disruption Screening Program (EDSP), with the aim of prioritising chemicals using high-throughput screening methods and computational toxicology approaches to evaluate thousands of chemicals for ED activities. The OECD framework for ED assessment (OECD [2018]) requires animal testing at higher levels, where relevant in vitro alternatives are missing e.g. for developmental, reproductive, neurological and immune effects. However, such follow-up testing is not possible for the cosmetics industry especially in the EU due to the complete animal testing ban which came into force in March 2013 (EU [2009]). Even for other industries, animal models are not suitable for assessing ED effects due to issues relating to ethics, capacity, speed and relevance (Patisaul et al. [2018]). Therefore, chemicals which cannot be evaluated using in vivo method must be assessed using alternative methods e.g. in silico and in vitro methods listed in Levels 1 and 2 of the framework described in the OECD 150 test guideline (OECD [2018]).
(§2) The performance of different in silico models for ED effects tends to be evaluated on single model for a single effect, such as ER or AR binding, agonism or antagonism (normally by the developer), or a limited number of models using multiple chemicals (Weyrich et al. [2022]). Multi-organisation collaborations have also evaluated multiple models for a specific effect e.g. ER (Mansouri et al. [2016]) and AR (Mansouri et al. [2020]) effects. Therefore, we have conducted a side-by-side comparison of multiple different in silico models covering three pathways in ED, namely ER, AR and aromatase inhibition and compared these with ToxCast-derived final calls, as well as with results from in vitro assays. The efficiency of the in silico models was evaluated as a metric for the ability of the in silico model to generate concrete predictions. […] In vivo data were available for some but not all chemicals; therefore, an evaluation of the performance of the methods was made by comparing the derived overall calls from in silico models with those from the ToxCast database. The final call for each chemical evaluated in the ToxCast assays was made by considering the active-flagged assays and the corresponding cytotoxicity levels, the ToxCast Pathway Model (Browne et al. [2015]) and the CERAPP Potency Level (Mansouri et al. [2016]) for ER effects and the ToxCast Pathway Model (Kleinstreuer et al. [2017]) for AR effects (see Online Resource 1 Supplementary Tables 2, 4 and 6 for the outcome of the ER, AR and aromatase ToxCast assays, additional literature and final calls for each chemical and target).

ER [6] = tested on: ER; parameters: method as in Mansouri et al. 2016; settings: ref Mansouri et al. 2016; cited from earlier work
ER [7] = tested on: ER; parameters: method as in US EPA ToxCast; settings: ref US EPA ToxCast, cited from earlier work
AR [8] = assay: ToxCast AR assays and final ToxCast call
Source text: as §1, §2

aromatase [9] = assay: ToxCast aromatase assays (TOX21_Aromatase_Inhibition) and final ToxCast call; format: cell-based
Source text: as §2
Aromatase represents only one enzyme involved in steroidogenesis (the conversion of androgens to oestrogens); therefore, the aromatase assay detects effects on 17β-oestradiol production only. […] It is a cell-based assay in which MCF-7 cells are incubated with the test chemical for 24 h before measuring aromatase activities indirectly via a luciferase-based reporter endpoint which is dependent on the binding of the oestradiol–ER complex to the oestrogen response element. A decrease in luciferase activity can occur as a result of direct inhibition of aromatase (preventing the production of oestradiol) or by preventing oestradiol from binding to the ER and thus the binding to the oestrogen RE which initiates the production of luciferase (Lui et al. [2008]).

AR [10] = settings: cited from earlier work
H295R cells = assay: H295R steroidogenesis assay (oestrogen and androgen production); format: cell-based, human; settings: increase
Protocol: The in vitro H295R Steroidogenesis Assay is based on the human adenocarcinoma cell line, NCI-H295R, in which the human steroidogenesis pathway is fully functional (OECD 2022). The effect of the test chemical on the production of 17β-estradiol and testosterone is measured using ERα CALUX and AR CALUX technology.
The test chemical was tested in two independent assays, each in triplicate.

AR [11] = tested on: AR; parameters: method as in ToxCast; settings: ref ToxCast, cited from earlier work
human (non-selective) ER = assay: ER radioligand ([3H]estradiol) receptor-binding assay; settings: single-dose screening, 10 µM
Protocol: The chemicals were tested for their ability to bind to different targets. […] Chemicals were incubated at 10 µM with cells overexpressing ER or AR for 24 h at 4°C, after which, the binding of the radiolabeled ligand ([^3H]estradiol for ER and [^3H]methyltrienolone for AR) was measured by liquid scintillation counting. An increase or decrease higher than 50% were considered to represent significant effects. Four chemicals were tested in additional incubations at several concentrations up to the maximum soluble concentration for IC50 or EC50 determination for the associated target. Receptor binding was calculated as a % inhibition of the binding of a radioactively labeled ligand specific for each target.
Each test chemical was tested in a single assay in duplicate.

[12] = UPITT_HCI_U2OS_AR_TIF2_Nucleoli_Antagonist

Substance: isoeugenol
- ToxCast Pathway Model (AUC) (ER [1]; as agonist where given, value above 0.1 = significant interaction): 0.0124
- ToxCast Pathway Model interaction (ER [1]): no significant interaction
- aromatase inhibition outcome [2]: positive
- AR antagonism and impact of metabolism (AR [3]): exhibits AR antagonism which is decreased by metabolism
- ToxCast (Aromatase assays), positive/total (aromatase [4]): 0/2 positive
- Final "true" call (ToxCast) ER (ER [5]): Inconclusive
- CERAPP Potency Level (ER [6]): Weak agonist/ antagonist
- ToxCast 1: (Comments), efficacy (ER [7]; borderline: less than 50% efficacy): Boarderline: less than 50% efficacy
- ToxCast 1: (Active assays), positive/total ER assays (ER [7]): 9/19 positive
- ToxCast conclusion from assays result (ER [7]): Endocrine Disruption Potential.Significant Estrogen Receptor activity seen
- Final "true" call (ToxCast) (AR [8]; AR effects, from active assays, cytotoxicity and pathway model): Negative
- ToxCast result (AR [8]; AR overall call from Supplementary Table 4): Negative
- Final "true" call (ToxCast) AR (AR [8]; from ToxCast assays and ToxCast Pathway Model): Negative
- ToxCast result (aromatase [9]; aromatase overall ToxCast call): Negative
- Final "true" call (ToxCast) Aromatase inhibition (aromatase [9]; from ToxCast assays): Negative
- ToxCast Pathway Model (AUC) (AR [10]; AR pathway model, ref Kleinstreuer et al (2017) 10.1021/acs.chemrestox.6b00347): AUC = = 0, then there is no significant interaction.
- ToxCast Pathway model, interaction with the AR (AR [10]; ref Kleinstreuer et al. [2017]): insignificant
- LEC, oestrogen production (H295R cells): 10 µM
- ToxCast conclusion from assays result (AR [11]; AR sheet): Endocrine Disruption Potential.Significant Estrogen Receptor activity seen
- ToxCast 1: (Active assays), number of positive assays / assays run (AR [11]; ToxCast AR assays): 1/14 positive
- ToxCast 1: (assays Comments) (AR [11]; [12]): Only highest concentration above the baseline
- efficacy (assays Comments) (AR [11]; [12]): Boarderline: less than 50% efficacy (48.8%)
- inhibition of control specific binding to the ER (human (non-selective) ER): less than -25%
